Measurements taken from ChEMBL document CHEMBL3608278 (J Med Chem, 2015).

Assays:
[1] = biological target: T1, Potassium voltage-gated channel subfamily A member 3 (Homo sapiens, UniProt P22001); set-up: species or system Blood
[2] = biological target: T1, Potassium voltage-gated channel subfamily A member 3; experiment: cell-based; set-up: species or system Blood

T1 sequence (P22001 whole entry): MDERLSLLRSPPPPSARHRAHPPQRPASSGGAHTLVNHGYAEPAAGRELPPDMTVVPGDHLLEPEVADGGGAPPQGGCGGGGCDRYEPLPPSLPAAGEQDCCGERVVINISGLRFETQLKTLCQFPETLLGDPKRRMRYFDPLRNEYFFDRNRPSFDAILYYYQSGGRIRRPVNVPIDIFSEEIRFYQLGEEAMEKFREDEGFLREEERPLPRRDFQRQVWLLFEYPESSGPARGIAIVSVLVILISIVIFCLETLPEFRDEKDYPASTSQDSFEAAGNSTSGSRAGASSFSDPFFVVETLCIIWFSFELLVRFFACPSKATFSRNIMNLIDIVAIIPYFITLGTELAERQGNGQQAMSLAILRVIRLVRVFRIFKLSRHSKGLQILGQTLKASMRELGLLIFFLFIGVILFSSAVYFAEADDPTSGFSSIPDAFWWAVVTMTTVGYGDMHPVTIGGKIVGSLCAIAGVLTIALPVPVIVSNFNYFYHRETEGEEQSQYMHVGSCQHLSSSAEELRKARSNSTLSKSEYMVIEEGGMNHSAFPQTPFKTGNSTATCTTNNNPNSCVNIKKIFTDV

Row | SMILES | IC50 [1] [nM] | IC50 [2] [nM]
1 | CC[C@H](C)[C@@H]1NC(=O)[C@@H](NC(=O)[C@H](CO)NC(=O)[C@@H](N)CCCNC(=N)N)CSSC[C@@H](C(=O)O)NC(=O)[C@H]([C@@H](C)O)NC(=O)CNC(=O)[C@@H]2CSSC[C@@H]3NC(=O)[C@H](CCC(N)=O)NC(=O)[C@H](Cc4ccccc4)NC(=O)[C@H](C)NC(=O)[C@H]([C@@H](C)O)NC(=O)[C@H](CSSC[C@H](NC(=O)[C@H](Cc4ccccc4)NC(=O)[C@H](CO)NC(=O)[C@H](CC(C)C)NC(=O)[C@H](CCCNC(=N)N)NC(=O)[C@H](Cc4ccc(O)cc4)NC(=O)[C@H](CCCCN)NC(=O)[C@H](CCSC)NC(=O)[C@H](CO)NC(=O)[C@H](Cc4cnc[nH]4)NC(=O)[C@H](CCCCN)NC3=O)C(=O)N[C@@H](CCCNC(=N)N)C(=O)N[C@@H](CCCCN)C(=O)N[C@@H]([C@@H](C)O)C(=O)N2)NC(=O)[C@H](CCCNC(=N)N)NC(=O)[C@H](CO)NC(=O)[C@H](CCCNC(=N)N)NC(=O)[C@@H]2CCCN2C(=O)[C@H]([C@@H](C)CC)NC(=O)[C@H]([C@@H](C)O)NC(=O)[C@H](CC(=O)O)NC1=O | 0.083 | 0.076
2 | CC[C@H](C)[C@@H]1NC(=O)[C@@H](NC(=O)[C@H](CO)NC(=O)[C@@H](N)CCCNC(=N)N)CSSC[C@@H](C(=O)O)NC(=O)[C@H]([C@@H](C)O)NC(=O)CNC(=O)[C@@H]2CSSC[C@@H]3NC(=O)[C@H](CCC(N)=O)NC(=O)[C@H](Cc4ccccc4)NC(=O)[C@H](C)NC(=O)[C@H]([C@@H](C)O)NC(=O)[C@H](CSSC[C@H](NC(=O)[C@H](Cc4ccccc4)NC(=O)[C@H](CO)NC(=O)[C@H](CCCNC(=N)N)NC(=O)[C@H](CCCNC(=N)N)NC(=O)[C@H](Cc4ccc(O)cc4)NC(=O)[C@H](CCCCN)NC(=O)[C@H](CCSC)NC(=O)[C@H](CO)NC(=O)[C@H](Cc4cnc[nH]4)NC(=O)[C@H](CCCCN)NC3=O)C(=O)N[C@@H](CCCNC(=N)N)C(=O)N[C@@H](CCCCN)C(=O)N[C@@H]([C@@H](C)O)C(=O)N2)NC(=O)[C@H](CCCNC(=N)N)NC(=O)[C@H](CO)NC(=O)[C@H](CCCCN)NC(=O)[C@@H]2CCCN2C(=O)[C@H]([C@@H](C)CC)NC(=O)[C@H]([C@@H](C)O)NC(=O)[C@H](CC(=O)O)NC1=O | 0.194 | 0.137
3 | CC[C@H](C)[C@@H]1NC(=O)[C@@H](NC(=O)[C@H](CO)NC(=O)[C@@H](N)CCCNC(=N)N)CSSC[C@@H](C(=O)O)NC(=O)[C@H]([C@@H](C)O)NC(=O)CNC(=O)[C@@H]2CSSC[C@@H]3NC(=O)[C@H](CCC(N)=O)NC(=O)[C@H](Cc4ccccc4)NC(=O)[C@H](C)NC(=O)[C@H]([C@@H](C)O)NC(=O)[C@H](CSSC[C@H](NC(=O)[C@H](Cc4ccccc4)NC(=O)[C@H](CCCNC(=N)N)NC(=O)[C@H](CC(C)C)NC(=O)[C@H](CCCNC(=N)N)NC(=O)[C@H](Cc4ccc(O)cc4)NC(=O)[C@H](CCCCN)NC(=O)[C@H](CCSC)NC(=O)[C@H](CO)NC(=O)[C@H](Cc4cnc[nH]4)NC(=O)[C@H](CCCCN)NC3=O)C(=O)N[C@@H](CCCNC(=N)N)C(=O)N[C@@H](CCCCN)C(=O)N[C@@H]([C@@H](C)O)C(=O)N2)NC(=O)[C@H](CCCNC(=N)N)NC(=O)[C@H](CO)NC(=O)[C@H](CCCCN)NC(=O)[C@@H]2CCCN2C(=O)[C@H]([C@@H](C)CC)NC(=O)[C@H]([C@@H](C)O)NC(=O)[C@H](CC(=O)O)NC1=O | 0.368 | 0.158
4 | CC[C@H](C)[C@@H]1NC(=O)[C@@H](NC(=O)[C@H](CO)NC(=O)[C@@H](N)CCCNC(=N)N)CSSC[C@@H](C(=O)O)NC(=O)[C@H]([C@@H](C)O)NC(=O)CNC(=O)[C@@H]2CSSC[C@@H]3NC(=O)[C@H](CCC(N)=O)NC(=O)[C@H](Cc4ccccc4)NC(=O)[C@H](C)NC(=O)[C@H]([C@@H](C)O)NC(=O)[C@H](CSSC[C@H](NC(=O)[C@H](Cc4ccccc4)NC(=O)[C@H](CO)NC(=O)[C@H](CC(C)C)NC(=O)[C@H](CCCNC(=N)N)NC(=O)[C@H](Cc4ccc(O)cc4)NC(=O)[C@H](CCCCN)NC(=O)[C@H](CCSC)NC(=O)[C@H](CO)NC(=O)[C@H](CCCCN)NC(=O)[C@H](CCCCN)NC3=O)C(=O)N[C@@H](CCCNC(=N)N)C(=O)N[C@@H](CCCCN)C(=O)N[C@@H]([C@@H](C)O)C(=O)N2)NC(=O)[C@H](CCCNC(=N)N)NC(=O)[C@H](CO)NC(=O)[C@H](CCCCN)NC(=O)[C@@H]2CCCN2C(=O)[C@H]([C@@H](C)CC)NC(=O)[C@H]([C@@H](C)O)NC(=O)[C@H](CC(=O)O)NC1=O | 0.089 | 0.041
5 | CC[C@H](C)[C@@H]1NC(=O)[C@@H](NC(=O)[C@H](CO)NC(=O)[C@@H](N)CCCNC(=N)N)CSSC[C@@H](C(=O)O)NC(=O)[C@H]([C@@H](C)O)NC(=O)CNC(=O)[C@@H]2CSSC[C@@H]3NC(=O)[C@H](CCC(N)=O)NC(=O)[C@H](Cc4ccccc4)NC(=O)[C@H](C)NC(=O)[C@H]([C@@H](C)O)NC(=O)[C@H](CSSC[C@H](NC(=O)[C@H](Cc4ccccc4)NC(=O)[C@H](CO)NC(=O)[C@H](CCCCN)NC(=O)[C@H](CCCNC(=N)N)NC(=O)[C@H](Cc4ccc(O)cc4)NC(=O)[C@H](CCCCN)NC(=O)[C@H](CCSC)NC(=O)[C@H](CO)NC(=O)[C@H](Cc4cnc[nH]4)NC(=O)[C@H](CCCCN)NC3=O)C(=O)N[C@@H](CCCNC(=N)N)C(=O)N[C@@H](CCCCN)C(=O)N[C@@H]([C@@H](C)O)C(=O)N2)NC(=O)[C@H](CCCNC(=N)N)NC(=O)[C@H](CO)NC(=O)[C@H](CCCCN)NC(=O)[C@@H]2CCCN2C(=O)[C@H]([C@@H](C)CC)NC(=O)[C@H]([C@@H](C)O)NC(=O)[C@H](CC(=O)O)NC1=O | 0.366 | 0.226
6 | CC[C@H](C)[C@@H]1NC(=O)[C@@H](NC(=O)[C@H](CO)NC(=O)[C@@H](N)CCCNC(=N)N)CSSC[C@@H](C(=O)O)NC(=O)[C@H]([C@@H](C)O)NC(=O)CNC(=O)[C@@H]2CSSC[C@@H]3NC(=O)[C@H](CCC(N)=O)NC(=O)[C@H](Cc4ccccc4)NC(=O)[C@H](C)NC(=O)[C@H]([C@@H](C)O)NC(=O)[C@H](CSSC[C@H](NC(=O)[C@H](Cc4ccccc4)NC(=O)[C@H](CO)NC(=O)[C@H](CC(C)C)NC(=O)[C@H](CCCNC(=N)N)NC(=O)[C@H](Cc4ccc(O)cc4)NC(=O)[C@H](CCCCN)NC(=O)[C@H](CCSC)NC(=O)[C@H](CO)NC(=O)[C@H](Cc4c[nH]cn4)NC(=O)[C@H](CCCCN)NC3=O)C(=O)N[C@@H](CCCNC(=N)N)C(=O)N[C@@H](CCCCN)C(=O)N[C@@H](CCCCN)C(=O)N2)NC(=O)[C@H](CCCNC(=N)N)NC(=O)[C@H](CO)NC(=O)[C@H](CCCCN)NC(=O)[C@@H]2CCCN2C(=O)[C@H]([C@@H](C)CC)NC(=O)[C@H]([C@@H](C)O)NC(=O)[C@H](CC(=O)O)NC1=O | 27.9 | 5.98
